Laboratory results from patent publication US10905651B1, “Zeinmersome nanocarriers for drug delivery to the liver” (King Abdulaziz University, priority 2020, dated 2021).

Legend:
[1] = test system: TAA-induced hepatic fibrosis rats; assay: Inflammatory and oxidative markers in liver homogenate of TAA-induced hepatic fibrosis rats; assay type: in vivo, rat; conditions: two months; for IL-6 level in liver homogenate (reversal of TAA-induced increase): FIG. 5A; for TNF-α level in liver homogenate (reversal of TAA-induced increase): FIG. 5B; for MDA level in liver homogenate (reversal of TAA-induced increase): FIG. 6A; for GSH level in liver homogenate (reversal of TAA-induced decrease): FIG. 6B
Procedure: Rats were given freshly prepared TAA (0.9% w/v in saline solution, 200 mg/kg, ip) twice weekly for eight weeks. A normal control (NC) group of rats (n=8) received injections of the vehicle twice weekly for eight weeks. The TAA-treated rats were randomly assigned to groups (n=8), including a test group for each dosage of a free drug (not encapsulated in ZMS), each dosage of zeinmersomes encapsulating the drug, and a positive control group (PC) having hepatic fibrosis but receiving a vehicle-only treatment instead of a drug treatment. Five groups of rats (n=8) were given freshly prepared TAA (0.9% w/v in saline solution, 200 mg/kg, ip) twice weekly for eight weeks and a normal control (NC) group received vehicle injections, as described in Example 4. The five TAA groups included a positive control group (PC, untreated) and four groups treated with low and high doses (2 and 4 mg/kg/day) of OM as raw drug (OL & OH, respectively) and the same low and high doses (2 and 4 mg/kg/day) of OM formulated as zeinmersomes (OLZMS & OHZMS, respectively). The OM standard drug was suspended in distilled water containing 0.25% w/v carboxymethyl cellulose. The doses were given by oral gavage once daily for two months. […] At the end of treatment duration, blood samples were withdrawn from the retro-orbital plexus of the rats under light ether anesthesia. Plasma was separated and kept at −80° C. until analysis. Then, the rats were sacrificed by cervical dislocation under ether anesthesia. Liver and duodenum were isolated and parts of each were kept in 10% formalin-saline for histopathological examination. Other portions of liver tissue were homogenized. The plasma levels of ALT and AST and the homogenate levels of IL-6, reduced glutathione (GSH), TNF-α, malondialdehyde (MDA), and protein content were measured using ELISA kits (MyBioSource, Inc. CA, USA). In addition, the concentrations of olmesartan in plasma and liver homogenate were measured by HPLC/MS. A part of the liver of each animal was rapidly dissected out, washed, and homogenized in phosphate-buffered saline (0.01M PBS, pH 7.4) using a TissueLyser II (Qiagen; Venlo, Netherlands) at 4° C. to produce a 10% homogenate. The homogenates were centrifugated at 10000 rpm for 15 min at 4° C. and the supernatant was kept at −80° C. till time of analysis. The levels of TNF-α, IL-6, malondialdehyde (MDA), and reduced glutathione (GSH) were measured by the ELISA kits using a micro plate reader (Versa Max, Molecular Devices). The protein content in the liver homogenate was determined by using a colorimetric kit based on Bradford method (Bradford 1976) and the levels of IL-6, TNF-α, GSH, and MDA were expressed/mg protein. The IL-6 level was measured by using the competitive enzyme immunoassay technique utilizing a polyclonal anti-IL-6 antibody and an IL-6-HRP conjugate. The assay sample and buffer were incubated together with IL-6-HRP conjugate in pre-coated plate for one hour. After washing, the wells were then incubated with a substrate for HRP enzyme. The product of the enzyme-substrate reaction formed a blue colored complex. Finally, a stop solution was added to stop the reaction, which then turned the solution yellow. Absorbance was read at 450 nm in a microplate reader. The TNF-α level was measured by using the principle of double antibody sandwich ELISA technique is used. Anti-TNF-α antibody was pre-coated on the wells. Add biotin labeled anti-TNF-α antibodies to combine with the antigens on immune complexes. Avidin-Biotin-Peroxidase Complex was added, and unbound conjugates were washed away with wash buffer. TMB substrates were used to visualize HRP enzymatic reaction producing a blue color product that changed into yellow after adding acidic stop solution. The density of yellow is proportional to TNF-α amount of sample captured in plate. Absorbance was read at 450 nm. The GSH level was measured by using the principle of double antibody sandwich ELISA technique. Anti-GSH antibody was pre-coated on the wells. […]

[2] = test system: bile duct-ligated fibrotic rats; conditions: 1 mg/kg/day orally; cited from earlier work
fructose-fed rats = conditions: 0.1 mg/kg/day; cited from earlier work
[3] = test system: methotrexate-induced intestinal mucositis; conditions: pretreatment with 0.5, 1.0, or 5.0 mg/kg; cited from earlier work
AT2 receptors = biological target: T1, AT2 receptors (Homo sapiens, UniProt P50052); conditions: cited from earlier work
T1 sequence (P50052 1-363): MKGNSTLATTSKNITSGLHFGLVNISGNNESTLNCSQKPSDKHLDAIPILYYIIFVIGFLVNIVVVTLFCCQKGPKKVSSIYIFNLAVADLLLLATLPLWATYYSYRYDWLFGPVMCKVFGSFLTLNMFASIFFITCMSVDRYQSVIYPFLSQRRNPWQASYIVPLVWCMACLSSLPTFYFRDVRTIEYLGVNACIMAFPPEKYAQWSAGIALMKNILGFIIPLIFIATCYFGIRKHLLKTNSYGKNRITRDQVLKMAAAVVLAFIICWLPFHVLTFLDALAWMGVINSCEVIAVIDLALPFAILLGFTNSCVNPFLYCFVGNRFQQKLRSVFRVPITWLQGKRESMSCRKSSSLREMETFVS

## CCCc1nc(C(C)(C)O)c(C(=O)OCc2oc(=O)oc2C)n1Cc1ccc(-c2ccccc2-c2nnn[nH]2)cc1 [OM, (5-methyl-2-oxo-1,3-dioxol-4-yl)methyl 5-(2-hydroxypropan-2-yl)-2-propyl-3-[[4-[2-(2H-tetrazol-5-yl)phenyl]phenyl]methyl]imidazole-4-carboxylate]
[1]; high dose 4 mg/kg/day oral
  IL-6 level in liver homogenate (reversal of TAA-induced increase): significantly reversed
  TNF-α level in liver homogenate (reversal of TAA-induced increase): significantly reversed
  MDA level in liver homogenate (reversal of TAA-induced increase): significantly reversed
  GSH level in liver homogenate (reversal of TAA-induced decrease): significantly reversed
[1]; low dose 2 mg/kg/day oral
  IL-6 level in liver homogenate (reversal of TAA-induced increase): All treatments except for OL significantly reversed
  TNF-α level in liver homogenate (reversal of TAA-induced increase): All treatments except for OL significantly reversed
  MDA level in liver homogenate (reversal of TAA-induced increase): All treatments except for OL significantly reversed
  GSH level in liver homogenate (reversal of TAA-induced decrease): All treatments except for OL significantly reversed
[2]
  liver hydroxyproline content, mRNA expression of collagen, α-smooth muscle actin, and plasma levels of TGF-β: significantly reduced
fructose-fed rats
  TNF-α level: reduced
  cAMP level in the soleus muscle: increased
[3]
  enteropathy (diarrhea, weight loss, decreased sucrose activity): caused enteropathy
  inflammatory infiltration, vascular congestion, ulcerations, hemorrhagic areas; myeloperoxidase, IL-1β and TNF-α levels: decreased
AT2 receptors
  antagonistic effects on the AT2 receptors: almost no antagonistic effects
